Data on six compounds can be found in publication PMC10650832, “Natural Phosphodiesterase-4 Inhibitors with Potential Anti-Inflammatory Activities from Millettia dielsiana” (Molecules, 2023).

The subject of assay [1] is NO production in RAW264.7 cells induced by LPS. Set-up: method as in PMID 31470215. The note with it: read-out: IC50 of inhibition of NO production; cited from earlier work.
For another assay, the system named is NO production. Set-up: method as in PMID 22902267. Conditions: read-out: IC50 of inhibition of NO production; cited from earlier work.
A further assay deals with T1, Recombinant PDE4D (Homo sapiens, UniProt Q08499).
T1 construct: purchased Sigma Aldrich Co Ltd
T1 sequence (Q08499 whole entry, species assumed): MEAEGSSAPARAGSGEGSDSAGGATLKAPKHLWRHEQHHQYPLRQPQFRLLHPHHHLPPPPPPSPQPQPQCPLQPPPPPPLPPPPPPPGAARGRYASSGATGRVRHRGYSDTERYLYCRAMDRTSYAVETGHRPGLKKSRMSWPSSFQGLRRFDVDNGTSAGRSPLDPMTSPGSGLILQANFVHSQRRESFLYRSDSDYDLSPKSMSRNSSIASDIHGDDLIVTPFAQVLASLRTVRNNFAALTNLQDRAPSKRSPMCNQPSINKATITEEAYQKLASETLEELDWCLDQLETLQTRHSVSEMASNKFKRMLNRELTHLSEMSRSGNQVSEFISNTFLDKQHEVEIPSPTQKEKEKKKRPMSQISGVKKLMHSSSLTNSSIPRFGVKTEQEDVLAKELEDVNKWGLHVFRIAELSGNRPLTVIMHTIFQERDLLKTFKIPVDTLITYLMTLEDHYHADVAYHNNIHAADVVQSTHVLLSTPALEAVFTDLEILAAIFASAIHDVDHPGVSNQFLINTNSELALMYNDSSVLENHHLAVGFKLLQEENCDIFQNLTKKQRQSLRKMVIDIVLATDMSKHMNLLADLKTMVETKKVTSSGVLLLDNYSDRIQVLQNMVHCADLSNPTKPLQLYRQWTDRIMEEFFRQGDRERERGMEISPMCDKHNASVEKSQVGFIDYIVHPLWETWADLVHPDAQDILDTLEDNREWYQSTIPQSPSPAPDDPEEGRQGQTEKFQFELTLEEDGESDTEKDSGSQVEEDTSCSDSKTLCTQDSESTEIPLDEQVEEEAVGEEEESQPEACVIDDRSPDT
As to the kind of experiment: In vitro PDE4D enzymatic assay (cAMP dynamic 2 kit). The assay is classed as biochemical. Conditions: average of three determinations ± SEM. On the procedure:
(§1) Recombinant PDE4B/D was from Sigma Aldrich Co Ltd. A PDE4B/D inhibitors assay was performed using a cAMP dynamic 2 kit. Serial dilutions of isolated compounds with DMSO (100-fold of final concentration) were prepared. Compound solutions were diluted 20-fold with cAMP assay buffer (50 mM Tris, 6 mM MgCl2, pH 7.5). Enzyme solution ([…] of 30 ng/mL or cAMP assay buffer for the control) and […] of isolated compounds (5-fold concentration of final concentration) were added to each well of the 96-well micro assay plate and pre-incubated at room temperature for 10 min. The enzymatic reactions were started by adding […] of cAMP solution (150 nM in cAMP assay buffer) or cAMP assay buffer and incubated at 37 °C for 30 min. The enzymatic reaction was terminated by placing the assay plate on ice. The concentration of cAMP was quantified by measurement of fluorescence intensity using Spectrophotometer Model-SP-2558 (Acton Research, Acton, MA, USA).

In the next assay the target is T2, Recombinant PDE4B (Homo sapiens, UniProt Q07343).
T2 construct: purchased Sigma Aldrich Co Ltd
T2 sequence (Q07343 whole entry, species assumed): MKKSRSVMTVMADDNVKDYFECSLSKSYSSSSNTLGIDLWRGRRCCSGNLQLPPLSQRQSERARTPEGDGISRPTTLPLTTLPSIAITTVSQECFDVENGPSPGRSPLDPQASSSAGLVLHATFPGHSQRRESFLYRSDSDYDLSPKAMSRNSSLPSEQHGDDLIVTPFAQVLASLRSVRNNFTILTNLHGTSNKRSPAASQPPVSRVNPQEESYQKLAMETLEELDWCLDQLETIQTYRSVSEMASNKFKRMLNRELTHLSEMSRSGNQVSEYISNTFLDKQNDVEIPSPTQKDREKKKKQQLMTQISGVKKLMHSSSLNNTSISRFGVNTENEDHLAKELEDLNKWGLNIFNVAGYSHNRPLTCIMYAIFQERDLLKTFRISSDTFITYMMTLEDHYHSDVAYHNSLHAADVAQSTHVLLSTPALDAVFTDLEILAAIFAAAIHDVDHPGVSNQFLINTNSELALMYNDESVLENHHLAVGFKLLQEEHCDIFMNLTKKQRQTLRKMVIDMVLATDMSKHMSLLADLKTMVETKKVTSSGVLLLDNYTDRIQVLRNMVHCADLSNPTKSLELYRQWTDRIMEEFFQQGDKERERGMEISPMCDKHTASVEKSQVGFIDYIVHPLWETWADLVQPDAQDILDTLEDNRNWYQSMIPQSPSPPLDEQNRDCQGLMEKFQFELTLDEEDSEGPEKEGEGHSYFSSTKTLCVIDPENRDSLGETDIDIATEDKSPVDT
As to the kind of experiment: In vitro PDE4B enzymatic assay (cAMP dynamic 2 kit). The note with it: average of three determinations ± SEM. The assay is classed as biochemical. On the procedure: as §1

The subject of assay [2] is NO production on RAW264.7 macrophages. As to the kind of experiment: Inhibition of NO production in LPS-stimulated RAW264.7 cells (Griess). The assay is classed as cell-based, murine. Conditions: highest concentration 50 µM. As for the experimental part: Cell RAW264.7 (ATCC, Manassas, VA, USA) was cultured for 48 h in DMEM (Dulbecco's Modified Eagle Medium) medium at 37 °C, 5% CO2, and 10% for fetal bovine serum (FBS). Then, the cell fluid was transferred to 96 wells with a density of 2.5 × 10^5 cells/well. Cells were stimulated with 2 μL lipopolysaccharide (LPS 0.1 mg/mL) for 24 h and supplemented with different concentrations of drugs/reagents. Cardamonin is used as a control (+) and DMSO as a control (-). The suspension of the cell was incubated with Griess reagent, NaNO2 at different concentrations to build the calibration curve. Measure the reaction response at λ = 570 nm. The inhibition rate of NO (%) production is determined by the formula: %UC = ([XTB]sample - [[…]) × 100 In which [XTB] is the average NO concentration calculated based on the standard NaNO2. […] Formazan crystalline metabolites are dissolved in dimethyl sulfoxide (DMSO, Sigma-Aldrich, Saint Louis, MO, USA) and measured optical density at λ = 540/720 nm on Infinite F50 device (Tecan, Männedorf, Switzerland).
A general note: Griess reagent forms a coloured azo dye with nitrite.

Regarding `Oc1ccc([C@H]2CCc3ccc(O)cc3O2)cc1` [D10, Tupichinol C], the IC50 (as a rule, the point on the concentration scale where inhibition reaches its midpoint) in assay [1] was 38.4 µM.
For the compound `COc1cc(OC)c(-c2coc3c4c(c(OC)cc3c2=O)OC(C)(C)C=C4)cc1OC` [D30, Millesianin C], the IC50 in the assay with NO production was 1.37 µM.
On to `C[C@H]1[C@H](C)CC[C@]2(C(=O)O)CC[C@]3(C)C(=CC[C@@H]4[C@@]5(C)CC[C@H](OC(=O)/C=C/c6ccc(O)cc6)C(C)(C)[C@@H]5CC[C@]43C)[C@H]12` (relative stereo) [D15, trans-3-O-p-hydroxycinnamoyl ursolic acid], for which the “IC50 of inhibition of PDE4D” value on Recombinant PDE4D is reported as “did not show activity”. Also, the “IC50 of inhibition of PDE4B” value on Recombinant PDE4B is listed as “did not show activity”.
With `COc1ccc([C@H]2COc3cc(O)ccc3C2)c(O)c1` [D9, (3S)-Vestitol], the IC50 in assay [1] was 16 µM.
Consider “5,7,4′-trihydroxyisoflavone 7-O-β-D-apiofuranosyl-(1→6)-β-D-glucopyranoside [D50]”, for which the IC50 at Recombinant PDE4D (read-out: IC50 of inhibition of PDE4D) was 11.7 ± 1.3 µM; in assay [2] it was 5.4 ± 0.9 µM; on Recombinant PDE4B (read-out: IC50 of inhibition of PDE4B) it was 6.56 ± 0.7 µM.
As for `O=C(/C=C/c1ccc(O)cc1)c1ccc(O)cc1O` [D4, Isoliquiritigenin], the IC50 in assay [1] is 31.2 µM.
